# Earlier results, collected in patent US20220096467A1, “COMBINATION OF SELECTIVE ALPHA-ADRENERGIC RECEPTOR AGONIST OR AN ANTICHOLINERGIC AGENT AND LIPOIC ACID AND USES THEREOF” (Cellix Bio Private Limited, priority 2019, published 2022).
# Tested on: eyes of patients who had open angle glaucoma
# Conditions: 150 mg of ALA per day, controls received only topical medical therapy
structure (smiles),measurement,value
"O=C(O)CCCCC1CCSS1 (stereo not drawn) [ALA, alpha lipoic acid]",Eyes in the study with enhanced color visual fields and visual sensitivity versus the controls,45-47%
